Measurements taken from patent US20220347075A1, “PEPTIDE BASED COSMETIC OR DERMATOLOGICAL TREATMENT OF THE SKIN AND ITS APPENDAGES” (Sederma, priority 2019, published 2022).
Residues, ends and D or L forms follow the SMILES beside them. *: point of attachment. Palmitoyl = CCCCCCCCCCCCCCCC(=O)*

Key:
Format in all cases: cell-based
[1] = tested on: normal human keratinocytes (NHK); test: Molecular biology study (qRT-PCR) on NHK culture; details: 5 ppm, 24 hours, RT-PCR
Description: Molecular Biology Study on NHK Culture
Principle: in this test, confluent keratinocytes are brought into contact with the peptide according to the invention for 24 hours. The cells are then frozen to dryness and their RNAs are extracted, converted into DNA, then analyzed by qRT-PCR (“Quantitative real time reverse transcription polymerase chain reaction”). The results are expressed as an expression ratio between the treated case and the control case. A ratio greater than 1.5 is as an induction of gene expression (+50% compared to the control). A study of variances and a Student's t test are carried out for judging the significance of the results (n=4 for each condition).

[2] = tested on: normal human keratinocytes (NHK); test: Immunocytofluorescence labeling of involucrin, loricrin, filaggrin on NHK culture; details: 5 ppm, 7 days, immunofluorescence
Description: Study by Immunocytofluorescence Labeling on KHN Culture
Principle: confluent NHKs (n=3) are cultured as above for 7 days in the presence or absence (control) of the peptide according to the invention then the cell layers are fixed and labels by immunocytochemistry are carried out using antibodies directed against proteins characteristic of the maturation of the epidermis: involucrine, loricrin and filaggrin. Photos are captured using a fluorescence microscope and images analyzed using appropriate software. The results are compared with those of the control. The number of cells on the mats is evaluated by the Hoechst method (DNA staining), to reduce the fluorescence value to the number of cells. A variance study and a Student's t test are carried to judge the significance of the results.
1.1.1. Induction of the formation of involucrin, loricrin and filaggrin in NEM (by immunofluorescence)/effect of 5 ppm of the peptide according to the invention: […]

[3] = tested on: normal human keratinocytes (NHK); test: LC-MS/MS protein study on NHK culture; details: 5 ppm; 7 days; p < 0.01
Description: Liquid Chromatography/Mass Spectrometry (LC-MS/MS) Study on NHK Culture
Principle: the same culture protocol as for the DNA-Array is used but with a longer culture time (7 days) because the protein productions take longer to be able to be detected with this method in LC-MS/MS. The peptide concentration applied to the cells is 5 ppm (vs. control case). The culture medium of the NHK (n=3) is changed every 3 days. At the end of this contact, the cells are lysed for extracting the proteins and to analyze them in the form of ground material by a method combining the action of a protease on the ground material, the separation of the fragments by liquid chromatography coupled with mass spectrometry, and then the identification and concentration of pre-existing proteins according to the nature and quantity of the fragments obtained (LC-MS/MS). To carry out LC-MS/MS analysis on equivalent amounts of proteins, the protein concentration is measured on the ground material. The results are expressed as an expression ratio between the treated case and the control case. A ratio greater than 1.5 is considered as an increase in protein production (+50% compared to the control). A study of variances and a Student's t test is carried out for judging the significance of the results.

Propionibacterium acnes = Propionibacterium acnes growth inhibition test (OD 600 nm); details: for Time necessary to reach an OD of 1 (P. acnes growth): control 28 hours, anaerobic, 37° C.
Description: Propionibacterium acnes Growth Inhibition Test Principle: suspensions of Propionibacterium acnes of equivalent density are cultured in a suitable medium in the presence (test case) or absence (control case) of the peptide according to the invention, in anaerobic condition, at 37° C. Samples are taken at regular intervals to measure the OD at 600 nm for following the growth of the bacterial population over time. The growth curve of each culture is thus established. Growth of the bacterium Propionibacterium acnes: time necessary to reach an OD of 1 in the control case and in the presence of the peptide according to the invention (N=2 independent experiments; n=2 cultures per case): […]

[4] = tested on: normal human keratinocytes (NHK); test: DNA microarray (DNA-Array) gene expression on NHK culture; details: 7 ppm
Description: Study Using DNA Microarray Technology (DNA-Array) on NHK Culture
Principle: the peptide according to the invention (7 ppm) is brought into contact for 24 or 48 hours with confluent NHKs (vs. control case). Then the NHK mats are rinsed, and the cells are crushed to extract their mRNA. These mRNAs are then converted into DNA sequences which are analyzed after depositing on DNA chips and amplification by a method like QRT-PCR. The mRNA variations due to the peptide are compared to the control case (peptide solvent). The results are expressed as an expression ratio between the treated case and the control case. A ratio greater than 1.5 is as an induction of gene expression (+50% compared to the control).

[5] = tested on: normal human keratinocytes (NHK) exposed to UVB; test: Immunoenzymatic assay (ELISA) of pro-inflammatory mediators of NHK exposed to UVB
Description: Study by Immune Enzymatic Assay on NHK Culture
Principle: NHKs in culture and at confluence are brought into contact with the peptide according to the invention (or its solvent) for 24 hours in a medium allowing their survival. Then the cell layers are irradiated with UVB in a physiological buffer and again brought into contact with the products to be tested for 24 hours. At the end of this incubation, the culture media are assayed by ELISA to know the amounts of pro-inflammatory mediators produced by these cells in response to irradiation. The results are compared to the control. A cell respiration test is conducted on the fixed mat to assess the number of cells and standardize the results. A study of variances and a Student's t test are carried out for judging the significance of the results.
To test the active ingredients, keratinocytes were placed in culture under light stress conditions (application of UVB radiation) to mimic an experimental skin micro-inflammation. In this situation, a significant decrease in their secretome of inflammation mediators will be interpreted in the sense of a restorative and protective action of the skin.
Variation compared to the control of the secretome of pro-inflammatory mediators by NHKs exposed to UVB (by immunoenzymatic assay)/effect of the peptide according to the invention at 4, 6 and 8 ppm: […]

CCCCCCCCCCCCCCCC(=O)N[C@@H](CCCCN)C(=O)N[C@H](C(=O)N[C@H](C(=O)N[C@@H](CCCCN)C(=O)N[C@@H](CO)C(=O)O)[C@@H](C)O)[C@@H](C)O [Pal-KTTKS, palmitoyl-lysyl-threonyl-threonyl-lysyl-serine] (Palmitoyl-KTTKS-OH)
CRYAB (alpha-crystallin B) gene expression, variation vs control ([1]; p < 0.01): ×3.47; p < 0.01
Involucrine gene expression, variation vs control ([1]; p < 0.01): ×1.64; p < 0.01
Transglutaminase 1 gene expression, variation vs control ([1]; p < 0.05): ×1.82; p < 0.05
Filaggrin: % of variation/control ([2]; p < 0.01): +310%; p < 0.01
Loricrin: % of variation/control ([2]; p < 0.01): +128%; p < 0.01
Involucrin: % of variation/control ([2]; p < 0.05): +1057%; p < 0.05
ADGRG1 protein, variation vs control [3]: ×1.63;
ASPRV1 protein, variation vs control [3]: ×2.35; p < 0.01
CALM5 protein, variation vs control [3]: ×1.61; p < 0.01
CRYAB (alpha-crystallin B) protein, variation vs control [3]: ×2.24; p < 0.01
FLG (filaggrin) protein, variation vs control [3]: ×2.66; p < 0.01
KRT1 protein, variation vs control [3]: ×1.58; p < 0.01
KRT6B protein, variation vs control [3]: ×2.07; p < 0.01
KRT9 protein, variation vs control [3]: ×1.54; p < 0.01
KRT10 protein, variation vs control [3]: ×1.75; p < 0.01
KRT15 protein, variation vs control [3]: ×2.02; p < 0.01
LOR (loricrin) protein, variation vs control [3]: ×2.92; p < 0.01
SPINK5 protein, variation vs control [3]: ×1.58; p < 0.01
TCHH (trichohyalin) protein, variation vs control [3]: ×1.54; p < 0.01
THBS1 protein, variation vs control [3]: ×1.98;
Time necessary to reach an OD of 1 (P. acnes growth) (Propionibacterium acnes; 6 ppm of peptide): 42 h
Growth of Propionibacterium acnes (result in words) (Propionibacterium acnes; 6 to 12 ppm): strongly and dose-dependently inhibits the growth
Time necessary to reach an OD of 1 (P. acnes growth) (Propionibacterium acnes; 9 ppm of peptide): 54 h
Time necessary to reach an OD of 1 (P. acnes growth) (Propionibacterium acnes; 12 ppm of peptide): 85.5 h
ABHD5 gene expression, variation vs control ([4]; 24 h contact): ×2.10
ADGRG1 gene expression, variation vs control ([4]; 24 h contact): ×1.92
ALOX12B gene expression, variation vs control ([4]; 24 h contact): ×2.48
ALOXE3 gene expression, variation vs control ([4]; 24 h contact): ×2.92
ASPRV1 gene expression, variation vs control ([4]; 24 h contact): ×3.35
BMP2 gene expression, variation vs control ([4]; 24 h contact): ×3.63
BMP6 gene expression, variation vs control ([4]; 24 h contact): ×13
ELOVL4 gene expression, variation vs control ([4]; 24 h contact): ×5.41
FN1 gene expression, variation vs control ([4]; 24 h contact): ×3.38
GSK3B (glycogen synthase kinase 3 beta) gene expression, variation vs control ([4]; 24 h contact): ×1.64
GSKA (glycogene synthase kinase 3 alpha) gene expression, variation vs control ([4]; 24 h contact): ×1.57
IL37 gene expression, variation vs control ([4]; 24 h contact): ×3.60
LCE2C gene expression, variation vs control ([4]; 24 h contact): ×26.30
LCE3A gene expression, variation vs control ([4]; 24 h contact): ×65.26
LCE3B gene expression, variation vs control ([4]; 24 h contact): ×123.00
LCE3D gene expression, variation vs control ([4]; 24 h contact): ×110.46
LCE3E gene expression, variation vs control ([4]; 24 h contact): ×135.99
LOR gene expression, variation vs control ([4]; 24 h contact): ×1.86
PPARD gene expression, variation vs control ([4]; 24 h contact): ×1.97
PRSS8 gene expression, variation vs control ([4]; 24 h contact): ×3.72
SPRR2A gene expression, variation vs control ([4]; 24 h contact): ×8.71
SPRR2B gene expression, variation vs control ([4]; 24 h contact): ×58.44
SPRR2C gene expression, variation vs control ([4]; 24 h contact): ×6.30
SPRR2D gene expression, variation vs control ([4]; 24 h contact): ×7.87
SPRR2E gene expression, variation vs control ([4]; 24 h contact): ×6.47
SPRR2F gene expression, variation vs control ([4]; 24 h contact): ×6.00
SPRR2G gene expression, variation vs control ([4]; 24 h contact): ×13.43
SPRR3 gene expression, variation vs control ([4]; 24 h contact): ×1.90
SPRR4 gene expression, variation vs control ([4]; 24 h contact): ×2.95
TGM1 gene expression, variation vs control ([4]; 24 h contact): ×1.70
CDSN gene expression, variation vs control ([4]; 24 hours of contact): ×3.36
CGNL1 gene expression, variation vs control ([4]; 24 hours of contact): ×3.37
CLDN4 gene expression, variation vs control ([4]; 24 hours of contact): ×5.16
CLDN7 gene expression, variation vs control ([4]; 24 hours of contact): ×4.47
CLDN12 gene expression, variation vs control ([4]; 24 hours of contact): ×2.68
CLDN15 gene expression, variation vs control ([4]; 24 hours of contact): ×4.80
CLDN17 gene expression, variation vs control ([4]; 24 hours of contact): ×113.20
CLDN23 gene expression, variation vs control ([4]; 24 hours of contact): ×3.69
KLK14 gene expression, variation vs control ([4]; 24 hours of contact): ×1.79
OCLN gene expression, variation vs control ([4]; 24 hours of contact): ×5.91
TJP1 gene expression, variation vs control ([4]; 24 hours of contact): ×2.15
CERS1 gene expression, variation vs control ([4]; 48 h contact): ×3.48
CRNN gene expression, variation vs control ([4]; 48 h contact): ×4.73
TCHH gene expression, variation vs control ([4]; 48 h contact): ×4.87
SOD2 gene expression, variation vs control ([4]; 48 hours contact): ×2.93
IL6 secretion, variation vs control ([5]; 4 ppm, ns): −13%
PGE2 secretion, variation vs control ([5]; 4 ppm, p < 0.01): −41%
IL6 secretion, variation vs control ([5]; 6 ppm, p < 0.01): −68% (p < 0.01)
PGE2 secretion, variation vs control ([5]; 6 ppm, p < 0.01): −69% (p < 0.01)
IL6 secretion, variation vs control ([5]; 8 ppm, p < 0.01): −84% (p < 0.01)
PGE2 secretion, variation vs control ([5]; 8 ppm, p < 0.01): −84% (p < 0.01)
